Reference: patent publication US6258790A, “Antisense modulation of integrin α4 expression” (Isis Pharmaceuticals, Inc., priority 1999, dated 2001)
Values joined by “and” are separate entries in the source; they are usually repeats but may differ in a detail not shown here. Identical values can stand only once.

Experiments:
murine integrin α4 mRNA [1] = experiment: Antisense inhibition of murine integrin α4 mRNA expression in P388D (IL-1) macrophage cells (RNA gel, PCR-labeled probe); assay type: cell-based, mouse; details: 100 nM; for % Control (murine integrin α4 mRNA) / % Inhib (murine integrin α4 mRNA): Table 8, P388D (IL-1) cells, 3 ug/ml lipofectin; for activity in the mRNA screen: Table 8 assay; for % Control / % Inhib.: Table 9, averages of duplicate samples
Procedure: Oligonucleotides were initially screened in murine P388D (IL-1) macrophage cells (American Type Culture Collection, Manassas Va.) for 4 hours at an oligonucleotide concentration of 100 nM in 3 ug/ml lipofectin.

murine integrin α4 mRNA [2] = experiment: as above; assay type: cell-based, mouse; details: Table 9, averages of duplicate samples
murine integrin α4 = experiment: Antisense inhibition of murine integrin α4 protein expression in IC-21 macrophage cells (flow cytometry, CD49d-PE); assay type: cell-based, mouse; details: for % Control (integrin α4 protein) / % Inhib (integrin α4 protein): Table 11
Procedure: Murine IC-21 macrophage cells (American Type Culture Collection, Manassas, Va.) were used for further study. Additional oligonucleotides were designed to target murine integrin α4. These are shown in Table 10; all 2' MOE nucleotides are shown in bold and remaining positions are 2' deoxy. All 2'-MOE cytosines in these compounds are 5' methylcytosines. IC-21 cells were seeded at 5×10^4 cell/well plates two days before assay. […] Wells were triplicates.
Cells (triplicates) were seeded at 2.5×10^4 cells/well in 24-well plates the day before treatment. Oligonucleotide concentrations were 0.2, 1, 5, 25 and 50 nM in 3 ug/ml LIPOFECTIN. Cells were harvested with 2 mM EDTA for 4 minutes, then 1 ml of 2% BSA, 0.2% azide was added per contents of each well.
IC-21 cells were treated with 0.3, 1, 3, 10 and 30 nM oligonucleotide with 3 ug/ml LIPOFECTIN for 4 hours. Cells were incubated for 24 hours, harvested with trypsin, stained with 2 ug/ml CD49d-PE and rat IgG2B as in previous examples.
These compounds were tested for ability to inhibit integrin α4 protein expression.

human integrin α4 [3] = experiment: Integrin α4 protein expression in A375 cells after electroporation of oligonucleotide (flow cytometry); assay type: cell-based; details: 24 hours
Procedure: A375 cells were treated with ISIS 107245, 107248, 107252, 107255 and 107259 by electroporation at 175 volts, r=1, c=1000, 0.2 ml Opti-MEM, 1×10^6 cells /ml, 2 mm gap electrode using a BTX Electro Cell Manipulator 600 (Genetronics, San Diego Calif.). Oligonucleotide concentrations were 1, 3, 10 and 30 μM. Cells were harvested 24 hours after oligonucleotide treatment and strained with 2 ug/ml CD49d-FITC for flow cytometry as in the previous examples.
ISIS 107248 was compared directly to ISIS 27104 for ability to inhibit integrin α4 expression in A375 melanoma cells. Oligonucleotides were electroporated into cells as in the previous example.

human integrin α4 [4] = experiment: Inhibition of human integrin α4 protein levels by antisense oligonucleotides (LIPOFECTIN, flow cytometry with CD49d-FITC) in A375 melanoma cells; assay type: cell-based; details: Table 24; A375 cells; lipofectin; as Example 8
murine integrin α4 RNA = experiment: Dose response effect on integrin α4 RNA levels in IC-21 cells; assay type: cell-based, mouse; details: for Percent inhib. (integrin α4 RNA) / Percent of control (integrin α4 RNA): Table 14, duplicate
Procedure: another dose response experiment was done to determine the IC50 of ISIS 16433 for inhibition of integrin α4 RNA. IC-21 cells were tested in duplicate with ISIS 16433 at 6.25, 12.5, 25 or 50 nM with 3 ug/ml LIPOFECTIN.
RNA was purified with Qiagen Qiashredder/RNEASY™ Kit according to manufacturer's directions. Probes were random primed using a prime-a-Gene Kit (Promega, Madison, Wis.).

[5] = IC-21 cells, 25 nM, triplicates

## 15603 (antisense GGATGCTTCAGGCTCTGGCC; phosphorothioate DNA, further chemistry not given here) [compound 15603]
Murine integrin α4 mRNA [1]
  % Control (murine integrin α4 mRNA): 38%
  % Inhib (murine integrin α4 mRNA): 62%

## 15609 (antisense CACCTCGCTTCCGCAGCCAT; phosphorothioate DNA, further chemistry not given here) [compound 15609]
Murine integrin α4 mRNA [2]; 12.5 nM
  % Control: 54%
  % Inhib.: 46%
Murine integrin α4 mRNA [2]; 25 nM
  % Control: 24%
  % Inhib.: 76%
Murine integrin α4 mRNA [2]; 50 nM
  % Control: 28%
  % Inhib.: 72%
Murine integrin α4 mRNA [1]
  % Control (murine integrin α4 mRNA): 07%
  % Inhib (murine integrin α4 mRNA): 93%
  activity in the mRNA screen: most active
  % Control: 57%
  % Inhib.: 43%
Murine integrin α4; [5]
  % Control (integrin α4 protein): 57%
  % Inhib (integrin α4 protein): 43%

## 107252 (antisense AAGAGTAATCATTGCTGAGA; chemistry not given here) [compound 107252]
Human integrin α4 [3]; Table 25, 1 nM as printed
  % Control: 17.4%
Human integrin α4 [3]; Table 25, 10 nM
  % Control: 7.9%
Human integrin α4 [3]; Table 25, 30 nM
  % Control: 2.9%
Human integrin α4 [4]
  % Control: 35%

## 16478 (GCCGACACCCGTTCGTTCGG; phosphorothioate DNA, further chemistry not given here) [compound 16478]
Murine integrin α4 RNA; 6.25 nM
  Percent inhib. (integrin α4 RNA): 25%
  Percent of control (integrin α4 RNA): 75%
Murine integrin α4 RNA; 12.5 nM
  Percent inhib. (integrin α4 RNA): 40%
  Percent of control (integrin α4 RNA): 60%
Murine integrin α4 RNA; 25 nM
  Percent inhib. (integrin α4 RNA): 76%
  Percent of control (integrin α4 RNA): 24%
Murine integrin α4 RNA; 50 nM
  Percent inhib. (integrin α4 RNA): 74%
  Percent of control (integrin α4 RNA): 26%
Murine integrin α4; [5]
  % Control (integrin α4 protein): 92%
Murine integrin α4; Table 12, 5 nM, triplicates
  % of control: 95%
Murine integrin α4; Table 12, 25 nM, triplicates
  % Inhib.: 13%
  % of control: 87%
Murine integrin α4; Table 12, 50 nM, triplicates
  % Inhib.: 16%
  % of control: 84%
Murine integrin α4; Table 13, 0.3 nM, 24 hours
  % of control: 137%
Murine integrin α4; Table 13, 1 nM, 24 hours
  % of control: 131%
Murine integrin α4; Table 13, 3 nM, 24 hours
  % of control: 127%
Murine integrin α4; Table 13, 10 nM, 24 hours
  % of control: 130%
Murine integrin α4; Table 13, 30 nM, 24 hours
  % of control: 108%

## 15601 (antisense CACGCCCCGTTTCTGTGGCC; phosphodiester, 2'-MOE, further chemistry not given here) [compound 15601]
Murine integrin α4 mRNA [1]
  % Control (murine integrin α4 mRNA): 60%
  % Inhib (murine integrin α4 mRNA): 40%

## 15608 (antisense CCGCAGCCATGCGCTCTTGG; phosphorothioate DNA, further chemistry not given here) [compound 15608]
Murine integrin α4 mRNA [2]; 12.5 nM
  % Control: 59%
  % Inhib.: 41%
Murine integrin α4 mRNA [2]; 25 nM
  % Control: 29%
  % Inhib.: 71%
Murine integrin α4 mRNA [2]; 50 nM
  % Control: 23%
  % Inhib.: 77%
Murine integrin α4 mRNA [1]
  % Control (murine integrin α4 mRNA): 16%
  % Inhib (murine integrin α4 mRNA): 84%
  activity in the mRNA screen: most active
  % Control: 39%
  % Inhib.: 61%
Murine integrin α4; [5]
  % Control (integrin α4 protein): 63%
  % Inhib (integrin α4 protein): 37%

## 16433 (CCGCAGCCATGCGCTCTTGG; phosphorothioate, 2'-MOE/deoxy, further chemistry not given here) [compound 16433]
Murine integrin α4 RNA; IC-21 cells, read-out: IC50 for integrin α4 RNA reduction
  IC50: ~10 nM
Murine integrin α4 RNA; 6.25 nM
  Percent inhib. (integrin α4 RNA): 41%
  Percent of control (integrin α4 RNA): 59%
Murine integrin α4 RNA; 12.5 nM
  Percent inhib. (integrin α4 RNA): 44%
  Percent of control (integrin α4 RNA): 46%
Murine integrin α4 RNA; 25 nM
  Percent inhib. (integrin α4 RNA): 72%
  Percent of control (integrin α4 RNA): 28%
Murine integrin α4 RNA; 50 nM
  Percent inhib. (integrin α4 RNA): 57%
  Percent of control (integrin α4 RNA): 43%
Murine integrin α4; IC-21 cells
  IC50: ~1 nM
Murine integrin α4; IC-21 cells, 30 nM
  inhibition of protein levels: inhibit protein levels to below basal levels
Murine integrin α4; [5]
  % Control (integrin α4 protein): 23%
Murine integrin α4; IC-21 cells, 25 nM, triplicates, 0.025 µM
  % Inhib (integrin α4 protein): 77% and > 50%
Murine integrin α4; Table 12, 0.2 nM, triplicates
  % Inhib.: 15%
  % of control: 85%
Murine integrin α4; Table 12, 1 nM, triplicates
  % Inhib.: 38%
  % of control: 62%
Murine integrin α4; Table 12, 5 nM, triplicates
  % Inhib.: 63%
  % of control: 37%
Murine integrin α4; Table 12, 25 nM, triplicates
  % Inhib.: 80%
  % of control: 20%
Murine integrin α4; Table 12, 50 nM, triplicates
  % Inhib.: 70%
  % of control: 30%
Murine integrin α4; Table 13, 0.3 nM, 24 hours
  % Inhib.: 11%
  % of control: 89%
Murine integrin α4; Table 13, 1 nM, 24 hours
  % Inhib.: 32%
  % of control: 68%
Murine integrin α4; Table 13, 3 nM, 24 hours
  % Inhib.: 75%
  % of control: 25%
Murine integrin α4; Table 13, 10 nM, 24 hours
  % Inhib.: 97%
Murine integrin α4; Table 13, 30 nM, 24 hours
  % of control: -14%
Murine integrin α4; Table 16, 0.3 nM
  % Control: 146%
Murine integrin α4; Table 16, 1 nM
  % Control: 94%
Murine integrin α4; Table 16, 3 nM
  % Control: 64%
  % Inhib.: 36%
Murine integrin α4; Table 16, 10 nM
  % Control: 02%
  % Inhib.: 98%

## 107259 (antisense GGAACACAGCCCGTAGGAAA; chemistry not given here) [compound 107259]
Human integrin α4 [3]; Table 25, 1 nM as printed
  % Control: 17.7%
Human integrin α4 [3]; Table 25, 10 nM
  % Control: 42.9%
Human integrin α4 [3]; Table 25, 30 nM
  % Control: 19.4%
Human integrin α4 [4]
  % Control: 37%

## 15605 (antisense CCGGTGCTGGCAGGCGACAG; phosphorothioate DNA, further chemistry not given here) [compound 15605]
Murine integrin α4 mRNA [1]
  % Control (murine integrin α4 mRNA): 84%
  % Inhib (murine integrin α4 mRNA): 16%

## 15602 (antisense CACGCCCCGTTTCTGTGGCC; phosphorothioate DNA, further chemistry not given here) [compound 15602]
Murine integrin α4 mRNA [1]
  % Control (murine integrin α4 mRNA): 48%
  % Inhib (murine integrin α4 mRNA): 52%

## 15604 (antisense GGAGCGATCGTAGTGGCCAG; phosphorothioate DNA, further chemistry not given here) [compound 15604]
Murine integrin α4 mRNA [1]
  % Control (murine integrin α4 mRNA): 134%

## 107245 (antisense GTTGATATAACTCCAACTGT; chemistry not given here) [compound 107245]
Human integrin α4 [3]; Table 25, 1 nM as printed
  % Control: 27.1%
Human integrin α4 [3]; Table 25, 10 nM
  % Control: 64.4%
Human integrin α4 [3]; Table 25, 30 nM
  % Control: 30.3%
Human integrin α4 [4]
  % Control: 35%

## 15606 (antisense GATGAAGTGCAGCAGCGTGT; phosphorothioate DNA, further chemistry not given here) [compound 15606]
Murine integrin α4 mRNA [1]
  % Control (murine integrin α4 mRNA): 72%
  % Inhib (murine integrin α4 mRNA): 28%

## 15600 (antisense CACGCCCCGTTTCTGTGGCC; phosphorothioate, 2'-MOE, further chemistry not given here) [compound 15600]
Murine integrin α4 mRNA [1]
  % Control (murine integrin α4 mRNA): 93%
  % Inhib (murine integrin α4 mRNA): 07%

## 107255 (antisense AAGTCTAAGACTTCTCCAGT; chemistry not given here) [compound 107255]
Human integrin α4 [3]; Table 25, 1 nM as printed
  % Control: 50.6%
Human integrin α4 [3]; Table 25, 10 nM
  % Control: 22.9%
Human integrin α4 [3]; Table 25, 30 nM
  % Control: 19.4%
Human integrin α4 [4]
  % Control: 36%

## 15607 (antisense GGCCACTGACCAGAGTTGCA; phosphorothioate DNA, further chemistry not given here) [compound 15607]
Murine integrin α4 mRNA [2]; 12.5 nM
  % Control: 78%
  % Inhib.: 22%
Murine integrin α4 mRNA [2]; 25 nM
  % Control: 67%
  % Inhib.: 33%
Murine integrin α4 mRNA [2]; 50 nM
  % Control: 50%
  % Inhib.: 50%
Murine integrin α4 mRNA [1]
  % Control (murine integrin α4 mRNA): 26%
  % Inhib (murine integrin α4 mRNA): 74%
  activity in the mRNA screen: most active
  % Control: 55%
  % Inhib.: 45%
Murine integrin α4; [5]
  % Control (integrin α4 protein): 82%
  % Inhib (integrin α4 protein): 18%
